Experiment [1] concerns Thoracic artery. Description: Inhibition of potassium chloride-induced contraction in Rattus norvegicus albino (rat) thoracic artery at 10^-5 mol/l after 10 min. The class given is functional.
In experiment [2] the test system is Ileum. Nature of the experiment: Inhibition of barium chloride-induced contraction inRattus norvegicus albino (rat) ileum at 10^-5 mol/l after 10 min. The class given is functional.

Structures are written as SMILES.

For orientation: inhibition means how much of the control response was suppressed.

With `COC(=O)C1=C(C)NC2=C(C(=O)C(C)(C)CC2)C1c1c(F)cccc1F` (stereo unspecified), the inhibition at 10 µM in experiment [1] amounted to 23.6%; in experiment [2], 79.4%.

As for `CCOC(=O)C1=C(C)NC2=C(C(=O)C(C)(C)CC2)C1c1cc(F)ccc1F` (stereo unspecified), the inhibition at 10 µM worked out at 21.4% in experiment [1] and 86.8% in experiment [2].

In experiment [2], `COC(=O)C1=C(C)NC2=C(C(=O)CC(C)(C)C2)C1c1c(F)cccc1F` (stereo unspecified) displayed an inhibition at 10 µM of 74.6%. With `CCN(CC)C(=O)C1=C(C)NC2=C(C(=O)C(C)(C)CC2)C1c1cccc(F)c1F` (stereo unspecified), the inhibition at 10 µM stood at 37% in experiment [1] and 54.2% in experiment [2].

As to `CCN(CC)C(=O)C1=C(C)NC2=C(C(=O)CC(C)(C)C2)C1c1cccc(F)c1F` (stereo unspecified), the values for the inhibition at 10 µM in experiment [1] and in experiment [2] were 31.5% and 51.3%, respectively.

For the compound `COC(=O)C1=C(C)NC(C)=C(C(=O)OCCN(C)Cc2ccccc2)C1c1cccc([N+](=O)[O-])c1` (stereo unspecified) [NICARDIPINE], the values for the inhibition at 10 µM in experiment [1] and in experiment [2] were 15.9% and 70%, respectively.
